The text below walks through data of patent publication US7473783B2, “Bicyclic pyrazolo protein kinase modulators” (SGX Pharmaceuticals, Inc., priority 2003, dated 2009).

A value given as a limit tells only on which side of the number the result lay.

T2 sequence (P08581 25-1390): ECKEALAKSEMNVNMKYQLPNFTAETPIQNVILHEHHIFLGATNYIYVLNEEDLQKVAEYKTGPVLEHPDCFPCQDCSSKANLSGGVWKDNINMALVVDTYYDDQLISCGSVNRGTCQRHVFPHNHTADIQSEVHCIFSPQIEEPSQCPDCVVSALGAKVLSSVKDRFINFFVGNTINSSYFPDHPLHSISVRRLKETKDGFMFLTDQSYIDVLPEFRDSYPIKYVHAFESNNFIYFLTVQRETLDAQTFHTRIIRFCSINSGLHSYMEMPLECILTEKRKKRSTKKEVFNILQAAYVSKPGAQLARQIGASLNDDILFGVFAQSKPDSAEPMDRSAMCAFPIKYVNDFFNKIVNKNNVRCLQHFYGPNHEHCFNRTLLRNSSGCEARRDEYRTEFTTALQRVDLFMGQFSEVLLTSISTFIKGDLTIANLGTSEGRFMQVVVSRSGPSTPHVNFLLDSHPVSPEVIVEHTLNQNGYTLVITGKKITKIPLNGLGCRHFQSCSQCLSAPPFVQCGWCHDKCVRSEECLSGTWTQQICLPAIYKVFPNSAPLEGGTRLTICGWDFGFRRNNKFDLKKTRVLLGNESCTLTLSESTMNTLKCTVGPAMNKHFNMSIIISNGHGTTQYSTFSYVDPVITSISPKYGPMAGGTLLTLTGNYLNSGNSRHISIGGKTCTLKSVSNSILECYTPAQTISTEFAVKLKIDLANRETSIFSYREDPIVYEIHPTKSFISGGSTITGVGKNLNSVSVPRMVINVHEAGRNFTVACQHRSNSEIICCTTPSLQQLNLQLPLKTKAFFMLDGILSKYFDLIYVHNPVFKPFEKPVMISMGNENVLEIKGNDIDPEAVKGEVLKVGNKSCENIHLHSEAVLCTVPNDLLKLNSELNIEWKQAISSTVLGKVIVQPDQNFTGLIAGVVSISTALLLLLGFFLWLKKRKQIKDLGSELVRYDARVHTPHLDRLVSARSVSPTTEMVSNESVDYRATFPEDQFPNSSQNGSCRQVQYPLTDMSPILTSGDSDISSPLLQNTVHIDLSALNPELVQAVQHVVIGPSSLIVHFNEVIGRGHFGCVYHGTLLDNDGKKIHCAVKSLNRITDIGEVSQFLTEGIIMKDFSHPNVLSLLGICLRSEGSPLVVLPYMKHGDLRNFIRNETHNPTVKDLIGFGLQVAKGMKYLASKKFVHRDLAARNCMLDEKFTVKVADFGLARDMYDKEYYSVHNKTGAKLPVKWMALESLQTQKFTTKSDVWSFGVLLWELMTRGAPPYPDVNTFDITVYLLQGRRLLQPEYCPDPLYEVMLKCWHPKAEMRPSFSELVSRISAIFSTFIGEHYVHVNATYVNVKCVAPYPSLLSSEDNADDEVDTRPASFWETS

In the first assay the target is T1, cAbl (Mus musculus, UniProt P00520).
T1 construct: 2 μg/mL Abl kinase domain; made in house; host or cells: E. coli BL21(DE3) strains
T1 sequence (P00520 242-493 limits assumed): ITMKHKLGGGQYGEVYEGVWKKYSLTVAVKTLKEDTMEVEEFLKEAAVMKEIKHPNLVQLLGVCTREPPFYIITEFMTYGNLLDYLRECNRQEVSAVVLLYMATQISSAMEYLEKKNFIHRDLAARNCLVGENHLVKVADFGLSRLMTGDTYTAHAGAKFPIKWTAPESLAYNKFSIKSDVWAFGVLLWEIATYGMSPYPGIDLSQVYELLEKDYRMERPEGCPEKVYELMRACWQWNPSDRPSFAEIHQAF
Kind of assay: Abl kinase assay (PK/LDH coupled, NADH loss at 340 nm). Type of assay: biochemical. To be noted: Table 7; 10 μM ATP. From the text:
Although this example presents the use of the kinase domain of a mutant form of Abl T315I 0-P, the kinase assays may use various forms of mutant and wild type Abl, including, for example, the entire molecule, the kinase domain, or a portion thereof. The kinases used in the assays may also be of varying phophorylation states. In the present example, a mutant kinase at a zero phosphorylation state was used.
Materials: Abl substrate peptide=EAIYAAPFAKKK-OH (Biopeptide, SD CA); βNADH (Sigma CAT#N-8129, FW=709.4); 2M MgCl2; 1M HEPES buffer, pH 7.5; Phosphoenolpyruvate=PEP (Sigma CAT#P-7002, FW=234); Lactate dehydrogenase=LDH (Worthington Biochemical CAT#2756); Pyruvate Kinase=PK (Sigma CAT#P-9136); ATP (Sigma CAT#A-3377, FW=551); Greiner 384-well UV star plate; and Purified and unphosphorylated T315I Abl kinase domain (clone 5582d42PPt6p6).
Stock Solutions: 10 mM NADH (7.09 mg/mL in miliQH2O) make fresh daily; 10 mM Abl substrate peptide (13.4 mg/mL in miliQH2O) store at −20° C.; 100 mM HEPES buffer, pH 7.5 (5 mL 1M stock+45 mL miliQH2O); 100 mM MgCl2 (5 mL 2M MgCl2+95 ml dH2O); 100 mM PEP (23.4 mg/mL in dH2O) store at −20° C.; 10 mM ATP (5.51 mg/mL in dH2O) store at −20° C. (dilute 50 μL into total of 10 mL miliQH2O daily=50 μM ATP working stock); 1000 U/mL PK (U/mg varies with lot) flash-freeze under liquid N2 and store at −80° C.; and 1000 U/mL LDH (U/mg varies with lot) flash-freeze under liquid N2 and store at −80° C.
Standard Assay Setup for 384-well format (50 μl reaction): 300 μM NADH; 10 mM MgCl2; 2 mM PEP; 45 U/mL PK; 60 U/mL LDH; 200 μM Abl substrate peptide; 2.5 μL test compound (in DMSO); 2 μg/mL Abl kinase domain; 10 μM ATP; 100 mM HEPES buffer; QS with miliQ dH2O to 50 μL; Positive controls contained DMSO with no test compound. Negative controls contained 5 μl of 0.5M EDTA (50 mM in the assay). The dephosphorylated form of the c-Abl T315I mutant were used in the biochemical screening assays. The kinase reaction was initiated at time t=0 by the addition of ATP.
The activity was measured by following the time-dependent loss of NADH by absorbance spectroscopy at 340 nm. The linear portion of the resulting progress curve was then be analyzed by linear regression to get the activity in absorbance units/time, reported as the slope of that best fit line (moles/unit time can be calculated from using molar extinction coefficient for NADH at 340 nm, 6250M^−1cm^−1).
Data was analyzed using the equation: Z′=1-[3*(σ++σ−)/|μ+−μ−|], where μ denotes the mean and σ the standard deviation. The subscript designates positive or negative controls. The Z′ score for a robust screening assay should be ≧0.50. The typical threshold=μ+−3*σ+. Any value that falls below the threshold was designated a “hit”.
Dose response was analyzed using the equation: y=min+{(max−min)/(1+10^[compound]-logIC50)}, where y is the observed initial slope, max=the slope in the absence of inhibitor, min=the slope at infinite inhibitor, and the IC50 is the [compound] that corresponds to ½ the total observed amplitude (Amplitude=max−min).
To measure modulation, activation, or inhibition of AblKD, a test compound was added to the assay at a range of concentrations. Inhibitors may inhibit AblKD activity at an IC50 in the micromolar range, the nanomolar range, and, for example, in the subnanomolar range.
To measure the binding of a compound to Abl or AblKD, a test kit manufactured by Discoverx (Fremont, Calif.), ED—Staurosporine NSIP™ Enzyme Binding Assay Kit (see U.S. Pat. No. 5,643,734) was used.
On to `Nc1nc2[nH]nc(-c3ccccc3)c2s1`, for which the half-maximal inhibitory concentration (IC50) (commonly the concentration that gives 50% inhibition) is 11 to 100 µM.
In turn, `O=C(Nc1nc2[nH]nc(-c3cccc(Cl)c3)c2s1)c1ccccc1` showed an IC50 of 1 to 10 µM.
Consider `O=C(Nc1nc2[nH]nc(-c3ccccn3)c2s1)c1ccccc1`, for which the IC50 lay in the range of 11 to 100 µM.
Take `COc1ccc(-c2n[nH]c3nc(NC(=O)c4ccccc4)sc23)cc1`: the IC50 is 11 to 100 µM.
Take `O=C(Cc1cccs1)Nc1nc2[nH]nc(-c3ccccc3)c2s1`: the IC50 was < 1 µM.
The same measure, in the same setting: in the case of `O=C(Nc1nc2[nH]nc(-c3ccccc3)c2s1)c1ccco1` [drawing 264] it was < 1 µM.

The next assay has as its target T2, wild type MET kinase (Homo sapiens, UniProt P08581).
T2 construct: made in house
As to the kind of experiment: MET Kinase-Glo assay. To be noted: Table 9, 60 minutes at RT. Type of assay: biochemical. From the text:
(§1) Although this example presents the use of wild type MET and RON […], the kinase assays may use various forms of mutant and wild type RON or MET, including, for example, the entire intracellular domain, the kinase domain, or a portion thereof. The kinases used in the assays may also be of varying phophorylation states. In the case of RON, a mutant kinase at a zero phosphorylation state was used.
(§2) For the MET and RON assays, the Kinase-Glo® assay system (Promega) was used, which employs firefly luciferase to detect the amount of ATP following a kinase reaction. This assay system has two steps. First, the kinase reaction is run for a designated period of time. Next, an equivalent volume of Kinase-Glo reagent is added to quench the kinase reaction and detect the ATP remaining in the sample. The total light output is read by a plate-reading luminometer and the resulting signal is stable for 4 hours. Inhibition of kinase activity translates into lower ATP consumption and thus higher light output during the detection step.
(§3) Materials: Poly EY 4:1 (Sigma); MgCl2 (2M stock available from Lab Support); HEPES buffer, pH 7.5; Bovine serum albumin (Roche 92423420); ATP (Sigma CAT#A-3377, FW=551); White Costar 384-well flat-bottom plate (VWR 29444-088); and SGX RON kinase clone (M1254T activation loop mutant) or SGX MET kinase clone.
MET enzyme mix: 100 mM HEPES pH 7.5, 10 mM MgCl2, 0.3 mg/mL poly EY, 0.1% BSA, and 0.4 μg/mL MET kinase.
(§4) To each well of a multiwell plate was added 15 μL of the enzyme mix, 1 μL of compound at 20-times the desired final assay concentration (or DMSO for positive controls or 200 μM staurosporine for negative controls), and 4 μL of 50 μM ATP to start the reaction. The kinase was reaction to allowed to proceed for 60 minutes at RT for the MET assay. For the RON assay, the reaction proceeded at RT for 60 minutes to 120 minutes (depending on enzyme prep). 20 μL Kinase-Glo reagent was then added to each well. The reagent was incubated for at least 10 minutes before plate reading.
(§5) Data anlaysis was performed using methods similar to those described above in the Abl assay (Firepower®, Exegetix).
Turning to `CC(C)C(=O)Nc1nc2[nH]nc(-c3ccccc3Cl)c2s1`, the IC50 was < 5 µM.
The compound `COc1cccc(OC)c1C(=O)Nc1nc2[nH]nc(-c3ccccc3Cl)c2s1` showed an IC50 of 5 to 20 µM.
Same read-out and setting: in the case of `CC(=O)O[C@@H](C)C(=O)Nc1nc2[nH]nc(-c3ccccc3Cl)c2s1` it was > 20 µM; in that of `O=C(Nc1nc2[nH]nc(-c3ccc(O)cc3)c2s1)C1CC1` [drawing 274], < 5 µM.
Still for that read-out and setting: in the case of `O=C(Nc1nc2[nH]nc(-c3ccccc3Cl)c2s1)C1CC1` [drawing 276] it was < 5 µM; in that of `O=C(Nc1nc2[nH]nc(-c3ccccc3Br)c2s1)C1CC1` [drawing 278], 5 to 20 µM; in that of `COc1ccc(-c2n[nH]c3nc(NC(=O)C4CC4)sc23)cc1` [drawing 280], > 20 µM.

The target in the next assay is T3, RON kinase (M1254T activation loop mutant) (Homo sapiens, UniProt Q04912, M1254T).
T3 construct: made in house
T3 sequence (Q04912 25-1400 M1254T): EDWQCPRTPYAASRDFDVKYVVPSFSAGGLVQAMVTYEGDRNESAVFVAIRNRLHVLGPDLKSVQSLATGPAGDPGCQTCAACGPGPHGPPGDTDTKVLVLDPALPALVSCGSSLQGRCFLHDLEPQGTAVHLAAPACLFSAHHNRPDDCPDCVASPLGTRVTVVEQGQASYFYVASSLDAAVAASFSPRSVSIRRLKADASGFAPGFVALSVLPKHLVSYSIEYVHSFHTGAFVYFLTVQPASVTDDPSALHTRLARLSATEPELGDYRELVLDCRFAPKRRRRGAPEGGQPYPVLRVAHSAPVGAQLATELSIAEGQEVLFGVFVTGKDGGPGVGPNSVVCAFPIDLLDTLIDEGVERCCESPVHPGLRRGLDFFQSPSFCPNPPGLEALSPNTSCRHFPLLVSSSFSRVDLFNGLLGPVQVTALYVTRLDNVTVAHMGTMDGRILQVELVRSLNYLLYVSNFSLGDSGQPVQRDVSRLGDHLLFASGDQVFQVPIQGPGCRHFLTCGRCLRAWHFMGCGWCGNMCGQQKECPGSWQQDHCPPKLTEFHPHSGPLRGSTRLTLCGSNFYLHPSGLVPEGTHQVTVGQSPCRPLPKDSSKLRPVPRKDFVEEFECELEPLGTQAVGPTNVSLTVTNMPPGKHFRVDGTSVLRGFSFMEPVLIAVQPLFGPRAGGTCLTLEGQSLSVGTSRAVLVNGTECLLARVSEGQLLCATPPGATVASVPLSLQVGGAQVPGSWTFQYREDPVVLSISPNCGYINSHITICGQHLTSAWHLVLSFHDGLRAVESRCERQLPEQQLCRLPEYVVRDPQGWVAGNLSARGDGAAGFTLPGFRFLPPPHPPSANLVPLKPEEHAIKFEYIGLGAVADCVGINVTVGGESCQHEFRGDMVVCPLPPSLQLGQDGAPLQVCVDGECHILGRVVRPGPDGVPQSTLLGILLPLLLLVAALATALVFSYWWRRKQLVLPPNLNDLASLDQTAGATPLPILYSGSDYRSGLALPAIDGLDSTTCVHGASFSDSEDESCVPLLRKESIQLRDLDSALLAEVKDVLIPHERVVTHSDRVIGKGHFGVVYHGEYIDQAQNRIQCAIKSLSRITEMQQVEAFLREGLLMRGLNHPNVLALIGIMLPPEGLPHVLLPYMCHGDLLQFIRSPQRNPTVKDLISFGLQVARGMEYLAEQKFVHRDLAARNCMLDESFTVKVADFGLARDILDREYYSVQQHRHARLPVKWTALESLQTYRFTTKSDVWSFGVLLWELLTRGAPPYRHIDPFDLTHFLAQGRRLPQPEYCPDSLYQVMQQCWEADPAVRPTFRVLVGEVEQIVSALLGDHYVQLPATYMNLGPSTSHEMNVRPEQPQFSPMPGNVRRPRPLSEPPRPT
Kind of assay: RON Kinase-Glo assay. Type of assay: biochemical. To be noted: Table 9, 60 minutes to 120 minutes at RT.
From the text: as §1, §2, §3
RON enzyme mix: 100 mM HEPES pH 7.5, 10 mM MgCl2, 1 mg/mL poly EY, 0.1% BSA, and 3-5 μg/mL RON kinase (depending on enzyme prep).
as §4, §5
A general note: Kinase-Glo reads ATP consumption through a luciferase reaction.
In the case of `CC(C)C(=O)Nc1nc2[nH]nc(-c3ccccc3Cl)c2s1`, the IC50 was 5 to 20 µM.
`COc1cccc(OC)c1C(=O)Nc1nc2[nH]nc(-c3ccccc3Cl)c2s1` gave an IC50 of 5 to 20 µM.
Consider `CC(=O)O[C@@H](C)C(=O)Nc1nc2[nH]nc(-c3ccccc3Cl)c2s1`, for which the IC50 was > 20 µM.
On to `O=C(Nc1nc2[nH]nc(-c3ccc(O)cc3)c2s1)C1CC1` [drawing 274], for which the IC50 was 5 to 20 µM.
On the same count and under the same terms, for `O=C(Nc1nc2[nH]nc(-c3ccccc3Cl)c2s1)C1CC1` [drawing 276] the value was 5 to 20 µM.
`O=C(Nc1nc2[nH]nc(-c3ccccc3Br)c2s1)C1CC1` [drawing 278]: the IC50 is > 20 µM.
Still for that read-out and setting: for `COc1ccc(-c2n[nH]c3nc(NC(=O)C4CC4)sc23)cc1` [drawing 280] the value was > 20 µM.

The next assay relates to MV4-11 cells. Kind of assay: Cell survival assay (96-well XTT / 384-well AlamarBlue), MV4-11. To be noted: Homo sapiens, Table 10, symbol outside brackets, 72 hours. Type of assay: cell-based. As for the experimental part:
(§6) Flt3 cell line selection was performed according to the following two known methodologies: Kelly, et al, Cancer Cell 1:421-32 (2002); and Ye, et al, Blood 100: 2941-2949 (2002). MV4-11 and THP cells are maintained in Iscove's Modified Dulbecco's Medium supplemented with 10% fetal bovine serum (FBS) and penicillin/streptomycin, Ba/F3 cells are maintained in RPMI 1640 supplemented with 10% FBS, penicillin/streptomycin and 5ng/ml recombinant mouse IL-3.
(§7) Compounds were tested in both of the following assays in triplicates.
(§8) 96-well XTT assay: Cells are grown in their growth media containing various concentrations of compounds (triplicates) on a 96-well plate for 72 hours at 37° C. The starting cell number is 8000 cells per well and volume is 120 μl. At the end of the 72-hour incubation, 40μl of XTT labeling mixture (50:1 solution of sodium 3′-[1 -(pheylamino-carbonyl)-3,4-tetrazolium]-bis (4-methoxy-6-nitro)benzene sulfonic acid hydrate and Electron-coupling reagent: PMS (N-methyl dibenzopyrazine methyl sulfate) is added to each well of the plate. After additional 2 hours of incubation at 37° C., the absorbance reading at 405 nm with background correction at 650 nm is done using a spectrophotometer.
(§9) 384-well AlamarBlue assay: 90 μl of cell suspension is plated onto each well of a 384-well plate preprinted with 0.5 μl of compound in DMSO or DMSO only. The starting cell number is 4000 cells per well. After 72-hour incubation, 10 μl of AlamarBlue solution (440 μM resazurin in PBS) is then added to each well of the plate. After additional 2-hour incubation at 37° C., fluorescence is measured using a TECAN plate reading with excitation at 535 nm and emission 591 nm.
The compound `O=C(Nc1nc2[nH]nc(-c3ccc(Cl)cc3)c2s1)c1ccccc1` [drawing 281] displayed an IC50 of 1 to 10 µM.
On to `O=C(Nc1nc2[nH]nc(-c3ccccc3)c2s1)c1ccncc1` [drawing 282], for which the IC50 is 1 to 10 µM.
The compound `COCCOCC(=O)Nc1nc2[nH]nc(-c3ccccc3)c2s1` [drawing 283] gave an IC50 of 1 to 10 µM.
`CC(=O)N1CCC(C(=O)Nc2nc3[nH]nc(-c4ccccc4)c3s2)CC1` [drawing 284]: the 50% inhibitory concentration (IC50) lay within 1 to 10 µM.

A further assay concerns THP cells. Kind of assay: Cell survival assay (96-well XTT / 384-well AlamarBlue), THP. To be noted: Table 10; symbol in brackets; 72 hours. Type of assay: cell-based. As for the experimental part: as §6, §7, §8, §9
A general note: Tetrazolium assays rely on reduction of a dye to a coloured formazan, in cell work by metabolically active cells.
`O=C(Nc1nc2[nH]nc(-c3ccc(Cl)cc3)c2s1)c1ccccc1` [drawing 281]: the half-maximal inhibitory concentration (IC50) was in the range of 11 to 100 µM.
Take `O=C(Nc1nc2[nH]nc(-c3ccccc3)c2s1)c1ccncc1` [drawing 282]: the IC50 lay within 11 to 100 µM.
For the compound `COCCOCC(=O)Nc1nc2[nH]nc(-c3ccccc3)c2s1` [drawing 283], the 50% inhibitory concentration (IC50) is 11 to 100 µM.
With `CC(=O)N1CCC(C(=O)Nc2nc3[nH]nc(-c4ccccc4)c3s2)CC1` [drawing 284], the 50% inhibitory concentration (IC50) was 11 to 100 µM.
